According to patent US20040248860A1, “Use of selective progesterone receptor modulators for the treatment of androgen deficiency” (priority 2002, published 2004):

Experiments:
[1] = system: total testosterone levels; test: Phase II study of J867: total testosterone levels over 12 weeks; format: in vivo, human (female subjects); settings: for mean testosterone concentration increase over the treatment period: female subjects, 12 week treatment, change from baseline
Method: (§1) The effect of SPRMs on testosterone levels and SHBG levels was studied using various doses of J867 over three months. The study was a phase II, multi-center, randomized, double blind, parallel group study of J867 at doses of 5 mg, 10 mg, and 25 mg once a day (QD)compared to placebo. Approximately 120 female subjects between the ages of 18 and 49 were enrolled in the study and randomly assigned to one of the four dosing groups above. During the 12 week study, testosterone and SHBG were measured at screening visits during weeks 2, 4, 8, and 12 of the study.
FIG. 1 is a graph showing total testosterone levels as a function of time during the study. […] Testosterone concentrations were relatively constant for the group receiving placebo. […] Over the treatment period, the mean testosterone concentrations for the 5 mg QD group increased approximately 7-15 ng/dL; the mean increase for the 10 mg QD group was approximately 15-21 ng/dL; and the mean concentrations observed following treatment with 25 mg QD increased approximately 16-25 ng/dL.

[2] = system: sex hormone-binding globulin (SHBG); test: Phase II study of J867: SHBG levels over 12 weeks; format: in vivo, human (female subjects); settings: 12 week treatment
Method: as §1
SHBG levels were also measured at weeks 2, 4, 8, and 12 of the study.

[3] = target: T1, progesterone receptor (Oryctolagus cuniculus, UniProt P06186); settings: rabbit model, scale of 0-4; cited from earlier work
T1 construct: effects of compounds at the progesterone receptor using a rabbit model; from tissue; host or cells: live rabbit (in vivo)
T1 sequence (P06186 1-930): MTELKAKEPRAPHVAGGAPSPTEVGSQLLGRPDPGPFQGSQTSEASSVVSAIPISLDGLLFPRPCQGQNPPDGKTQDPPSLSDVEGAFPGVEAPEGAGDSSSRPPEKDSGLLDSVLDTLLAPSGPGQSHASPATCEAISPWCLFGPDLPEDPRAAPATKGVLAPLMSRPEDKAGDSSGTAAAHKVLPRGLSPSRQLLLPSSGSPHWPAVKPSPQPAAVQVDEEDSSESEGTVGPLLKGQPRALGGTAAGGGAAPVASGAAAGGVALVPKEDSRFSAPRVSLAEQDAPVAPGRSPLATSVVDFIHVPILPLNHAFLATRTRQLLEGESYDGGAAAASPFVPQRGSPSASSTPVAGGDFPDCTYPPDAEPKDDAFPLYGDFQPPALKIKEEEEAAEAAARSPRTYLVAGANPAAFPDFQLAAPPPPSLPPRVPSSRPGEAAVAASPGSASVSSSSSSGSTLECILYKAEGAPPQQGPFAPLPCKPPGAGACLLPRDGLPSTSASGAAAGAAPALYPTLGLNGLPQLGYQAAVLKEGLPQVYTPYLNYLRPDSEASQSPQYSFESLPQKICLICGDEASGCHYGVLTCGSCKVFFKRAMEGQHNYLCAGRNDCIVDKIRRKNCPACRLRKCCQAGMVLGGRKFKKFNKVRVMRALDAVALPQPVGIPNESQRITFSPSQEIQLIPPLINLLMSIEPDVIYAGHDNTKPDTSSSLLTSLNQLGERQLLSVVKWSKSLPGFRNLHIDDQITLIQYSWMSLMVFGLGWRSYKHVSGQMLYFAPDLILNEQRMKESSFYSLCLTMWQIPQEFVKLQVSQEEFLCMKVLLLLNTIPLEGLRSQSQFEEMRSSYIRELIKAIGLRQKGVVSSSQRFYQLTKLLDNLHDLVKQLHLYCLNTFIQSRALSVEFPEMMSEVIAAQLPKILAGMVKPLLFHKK

Row | Compound | mean testosterone concentration increase over the treatment period ([1]; 5 mg QD) | mean testosterone concentration increase over the treatment period ([1]; 10 mg QD) | mean testosterone concentration increase over the treatment period ([1]; 25 mg QD) | total testosterone levels (FIG. 1) ([1]; all doses (5, 10, 25 mg QD) compared to placebo) | visit with largest mean increase of testosterone from baseline ([1]; all three dose groups (5, 10, 25 mg QD)) | testosterone concentrations at the end of the study ([1]; all three dose groups, week 12) | mean level of SHBG during treatment ([2]; 5 mg QD) | mean level of SHBG during treatment ([2]; 10 mg QD) | mean level of SHBG during treatment ([2]; 25 mg QD) | McPhail score [3]
1 | COC[C@]1(OC)CC[C@H]2[C@@H]3CCC4=CC(=O)CCC4=C3[C@@H](c3ccc(/C=N/O)cc3)C[C@@]21C [J867, [4-[17β-Methoxy-17α-(methoxymethyl)-3-oxoestra-4,9-dien-11β-yl]benzaldehyd-(1E)-oxim]] | 7 to 15 ng/dL | 15 to 21 ng/dL | 16 to 25 ng/dL | testosterone levels increased with all doses | 2 week | still elevated above baseline | remained relatively constant | decreased from baseline | decreased from baseline | –
2 | CC(=O)[C@H]1CC[C@H]2[C@@H]3CCC4=CC(=O)CC[C@]4(C)[C@H]3CC[C@]12C [progesterone] | – | – | – | – | – | – | – | – | – | 4
3 | CC#C[C@]1(O)CC[C@H]2[C@@H]3CCC4=CC(=O)CCC4=C3[C@@H](c3ccc(N(C)C)cc3)C[C@@]21C [RU486, mifepristone] | – | – | – | – | – | – | – | – | – | less than 0.5
